# Reference: ChEMBL document CHEMBL3813632, “Thiazolo[3,2-a]benzimidazol-3(2H)-one derivatives: Structure-activity relationships of selective nucleotide pyrophosphatase/phosphodiesterase1 (NPP1) inhibitors” (Bioorg Med Chem, 2016)
# Assays:
# [1] = biological target: T1, Ectonucleotide pyrophosphatase/phosphodiesterase family member 1 (Homo sapiens) (UniProt P22413); assay: Inhibition of human recombinant NPP1 expressed in insect SF9 cells using ATP as substrate at 10 uM preincubated with substrate followed by protein addition and subsequent incubation for 30 mins by capillary electrophoresis
# T1 sequence (whole entry): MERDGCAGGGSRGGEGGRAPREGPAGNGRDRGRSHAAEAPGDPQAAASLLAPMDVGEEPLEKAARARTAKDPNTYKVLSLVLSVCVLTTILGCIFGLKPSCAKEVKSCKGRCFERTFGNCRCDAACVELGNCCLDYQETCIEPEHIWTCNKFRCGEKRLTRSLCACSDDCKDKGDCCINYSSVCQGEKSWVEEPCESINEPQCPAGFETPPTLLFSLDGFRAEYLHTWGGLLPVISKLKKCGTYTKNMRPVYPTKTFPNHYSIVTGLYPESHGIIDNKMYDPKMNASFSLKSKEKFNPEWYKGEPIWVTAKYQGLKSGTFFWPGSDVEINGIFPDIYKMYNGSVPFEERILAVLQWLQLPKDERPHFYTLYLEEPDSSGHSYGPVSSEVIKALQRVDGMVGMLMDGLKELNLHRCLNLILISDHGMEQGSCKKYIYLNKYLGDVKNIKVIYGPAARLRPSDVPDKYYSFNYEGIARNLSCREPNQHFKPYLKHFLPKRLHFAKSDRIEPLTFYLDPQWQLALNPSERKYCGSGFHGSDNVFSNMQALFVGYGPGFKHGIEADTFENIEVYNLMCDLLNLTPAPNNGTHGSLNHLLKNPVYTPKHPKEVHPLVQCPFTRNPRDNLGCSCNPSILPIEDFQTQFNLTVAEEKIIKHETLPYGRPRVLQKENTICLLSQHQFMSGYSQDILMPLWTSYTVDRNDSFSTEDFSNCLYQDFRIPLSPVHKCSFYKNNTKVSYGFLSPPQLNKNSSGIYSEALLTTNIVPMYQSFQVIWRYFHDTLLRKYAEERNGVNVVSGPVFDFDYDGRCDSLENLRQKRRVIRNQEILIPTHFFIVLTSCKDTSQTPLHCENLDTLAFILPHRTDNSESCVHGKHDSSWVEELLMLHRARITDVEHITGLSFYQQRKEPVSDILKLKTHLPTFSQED
# [2] = biological target: T2, Ectonucleotide pyrophosphatase/phosphodiesterase family member 1 (Homo sapiens, UniProt P22413); assay: Inhibition of human recombinant NPP1 expressed in insect SF9 cells using ATP as substrate preincubated with substrate followed by protein addition and subsequent incubation for 30 mins by capillary electrophoresis
# T2 sequence (P22413 whole entry): T1 sequence (whole entry)
# [3] = biological target: T2, Ectonucleotide pyrophosphatase/phosphodiesterase family member 1; assay: Competitive inhibition of human NPP1 expressed in African green monkey COS7 cells using ATP as substrate after 20 mins by Michaelis-Menten plot analysis; type: cell-based, COS-7
# [4] = Drug level in MgCl2/CaCl2/CHES buffer treated with (Z)-2-((5-iodofuran-2-yl)methylene)benzo[d]thiazolo[3,2-a]imidazol-3(2H)-one at pH 9 after 24 hrs by LC-MS analysis; type: physicochemical; details: pH 9, 24 h
# [5] = Retention time of the compound in MgCl2/CaCl2/CHES buffer at pH 9 by LC-MS analysis; type: physicochemical
# [6] = biological target: T2, Ectonucleotide pyrophosphatase/phosphodiesterase family member 1; assay: Competitive inhibition of human NPP1 transfected in HEK293 cells using p-Nph-5'-TMP as substrate preincubated for 3 mins followed by substrate addition measured after 15 mins by Cornish-Bowden plot analysis
SMILES,inhibition [1],Ki [2],further results
O=c1/c(=C/c2cccc(OCc3ccccc3)c2)sc2nc3ccccc3n12,10%,> 10 µM,–
Nc1c(S(=O)(=O)O)cc(Nc2ccc(Nc3nc(Cl)nc(Nc4cccc(S(=O)(=O)O)c4)n3)c(S(=O)(=O)O)c2)c2c1C(=O)c1ccccc1C2=O [REACTIVE BLUE 2],–,–,Ki [3]: 0.52 µM
O=c1/c(=C/C=C/c2ccccc2)sc2nc3ccccc3n12,24%,> 10 µM,–
O=c1/c(=C/c2ccc(Cl)cc2)sc2nc3ccccc3n12,32%,> 10 µM,–
O=c1/c(=C/c2ccc([N+](=O)[O-])o2)sc2nc3ccccc3n12,–,1.07 µM,–
O=c1/c(=C/c2ccccn2)sc2nc3ccccc3n12,39%,> 10 µM,–
C/C=c1\sc2nc3ccccc3n2c1=O,0%,> 10 µM,–
COc1cc(/C=c2/sc3nc4ccccc4n3c2=O)ccc1OCc1nnn[nH]1,21%,> 10 µM,–
O=c1/c(=C\c2ccccc2)sc2nc3ccccc3n12,10%,> 10 µM,–
O=c1/c(=C/c2ccco2)sc2nc3ccccc3n12,–,0.981 µM,–
O=c1/c(=C/c2ccc(Sc3ccccc3)o2)sc2nc3ccccc3n12,40%,≥ 10 µM,–
O=C(/C(O)=C\c1ccc(I)o1)n1c(=S)[nH]c2ccccc21,–,–,Drug metabolism [4]: metabolite_detected; Retention_time [5]: 3.8 min
O=c1/c(=C/c2ccccc2)sc2nc3ccccc3n12,31%,> 10 µM,–
Cc1ccc(/C=c2\sc3nc4ccccc4n3c2=O)o1,–,2.11 µM,–
O=c1/c(=C/c2ccc(N3CCOCC3)cc2)sc2nc3ccccc3n12,–,8.91 µM,–
CCN(CC)c1ncnc2c1ncn2[C@@H]1O[C@H](COP(=O)(O)OP(=O)(O)C(Br)(Br)P(=O)(O)O)[C@@H](O)[C@H]1O,–,–,Ki [6]: 12 µM
O=c1/c(=C/c2ccc(-c3ccccc3)o2)sc2nc3ccccc3n12,48%,≥ 10 µM,–

# Further lines, with some results ahead:
inhibition [1],Ki [2],SMILES,further results
–,8.56 µM,CC1CCN(c2cc(N3CCC(C)CC3)c([N+](=O)[O-])cc2/C=c2/sc3nc4ccccc4n3c2=O)CC1,–
13%,> 10 µM,O=c1/c(=C/c2cccc(Oc3ccccc3)c2)sc2nc3ccccc3n12,–
30%,> 10 µM,O=c1[nH]c2ccccc2cc1/C=c1/sc2nc3ccccc3n2c1=O,–
31%,> 10 µM,O=c1/c(=C/c2ccc(I)cc2)sc2nc3ccccc3n12,–
–,4.21 µM,CN(C)c1ccc(/C=c2\sc3nc4ccccc4n3c2=O)o1,–
43%,≥ 10 µM,O=c1/c(=C/c2cccs2)sc2nc3ccccc3n12,–
24%,> 10 µM,O=c1/c(=C\c2ccc3ccccc3c2)sc2nc3ccccc3n12,–
28%,> 10 µM,Cc1ccc(/C=c2\sc3nc4ccccc4n3c2=O)cc1,–
–,0.61 µM,O=c1/c(=C/c2ccc(Br)o2)sc2nc3ccccc3n12,–
11%,> 10 µM,O=c1/c(=C/c2cccc(Cc3ccccc3)c2)sc2nc3ccccc3n12,–
